Data set [1] deals with human cell cultures (mixed islets and ductal tissue cultures). The data set is described as follows: Insulin content by RIA, mixed human islet and ductal cultures (Example 2). It counts as cell-based. To be noted: vs HIP1, HIP, hamster INGAP, saline; FIG. 3. As for the experimental part:
HIP2, HIP1, HIP, controls and progenitor fractions were cultured over 10 days, according to standard protocol. Briefly, pancreata from adult human cadaveric organ donors were obtained through the local organ procurement organization. Islets were isolated according to established protocols described by Bonner-Weir and Jamal. (Bonner-Weir et al. Pediatric Diabetes: 2004; 5 (Suppl 2): 16-22. Jamal et al. Cell Death Differ. 2005 July; 12(7): 702-12). HIP2, HIP1, HIP and INGAP were synthesized by Bachem Bioscience, Malvern, Pa. and were quality tested by HPCL to be greater than 95% pure. Each peptide was provided in lyophilized powder and was resuspended in isotonic saline solution. Stock solutions were made so that only 1-2 ul aliquots were added to primary cell cultures to reach the final concentrations provided below. Stock solutions were frozen and thawed a total of three times for the six day treatment. […]
Pancreata from adult human cadaveric organ donors were obtained through the local organ procurement organization. […] Free islets with diameters ranging from 75 to 400 μm, determined to be greater than 90% pure by staining with dithizone (Sigma) a zinc chelater, were collected and washed. […]
Insulin levels were detected by Radioimmunoassay (RIA) from cultures treated with saline only (s/0), HIP2, HIP1, HIP and hamster INGAP. […]

For data set [2], the system named is human pancreatic ductal tissue cultures. The data set can be described thus: Insulin production by ELISA, human ductal tissue cultures (Example 3). It counts as cell-based. As for the experimental part:
Samples are 5 μg total protein in duplicate and measured by ELISA assay.
(§1) Values are mean insulin units (of duplicate samples) as measured by ELISA assay.
(§2) Human pancreatic tissue was treated as described in Example 1 and Insulin production was measured by ELISA assay. FIGS. 5 and 6 show the results of this experiment to show a dose response and to again compare the effect of HIP2 on the two different fractions of tissue as compared to the hamster INGAP sequence and a scrambled negative peptide sequence. […] The results in FIG. 5 were generated using 5 μg of each peptide, while the results in FIG. 6 were acquired using 0.002 μg of each peptide.
Background: An ELISA detects its analyte on a solid surface through an enzyme-linked reagent.

For data set [3], the system named is human pancreatic islet tissue cultures. The data set can be described thus: Insulin production by ELISA, human islet tissue cultures (Example 3). It is filed as cell-based. To be noted: vs SEQ ID NO:1 and SEQ ID NO:5. Here is the method:
Samples are 0.002 μg total protein in duplicate and measured by ELISA assay.
as §1, §2

Data set [4] concerns human pancreatic progenitor cells. The data set can be described thus: Inverted microscopy of human ductal/progenitor tissue cultures (Example 4). It counts as cell-based.
The test system of data set [5] is pancreatic islets of treated mice. The data set is described as follows: Quantitative immunohistochemistry image analysis of mouse pancreata (Example 7). It is filed as in vivo. To be noted: vs control. The source says:
The islet mass of the placebo group was 854,362 μm (2) compared with 2,161,782 μm (2) in HIP-treated mice.
Islet size was not different between HIP treated and control group, whereas, islet number and mass was increased.

Data set [6] can be described thus: Stability of peptide in isotonic saline. It counts as physicochemical. To be noted: 20° C. in isotonic saline. Here is the method:
Further, HIP2, may be stably stored for long periods of time.
HIP2, HIP1, HIP, controls and progenitor fractions were cultured over 10 days, according to standard protocol. Briefly, pancreata from adult human cadaveric organ donors were obtained through the local organ procurement organization. Islets were isolated according to established protocols described by Bonner-Weir and Jamal. (Bonner-Weir et al. Pediatric Diabetes: 2004; 5 (Suppl 2): 16-22. Jamal et al. Cell Death Differ. 2005 July; 12(7): 702-12). HIP2, HIP1, HIP and INGAP were synthesized by Bachem Bioscience, Malvern, Pa. and were quality tested by HPCL to be greater than 95% pure. Each peptide was provided in lyophilized powder and was resuspended in isotonic saline solution. Stock solutions were made so that only 1-2 ul aliquots were added to primary cell cultures to reach the final concentrations provided below. […] HPLC data confirmed that the peptides remained stable in the isotonic saline after the freeze/thaw cycles.

On to “HIP2: Human proIslet Peptide, fragment of human REG3A, in purified, synthetic, or recombinant form (SEQ ID NO:4) (IGLHDPTQGTEPNG; Fragment of naturally occurring human REG3 protein)”, for which the “increased bioactivity over the other agents used (insulin, RIA)” value in data set [1] is on record as 1.50-3.33 fold. For the same substance, in data set [2] (ductal cultures), the “effect of the higher concentration on insulin production” value is given as “more profound effect”. The “insulin production (FIG. 5)” value in data set [2] (ductal cultures, after 10 days, Rosenberg protocol, 5 μg, vs SEQ ID NO:1 and SEQ ID NO:5) was “increased insulin production”. Further, the “insulin production (FIG. 8B)” value in data set [2] (ductal cultures, two concentrations (3 μM and 1 mM), vs SEQ ID NO:1 and SEQ ID NO:5) is “increased insulin production”. Besides, in data set [2] (in each of the examples (ductal and islet fractions)), the “induction of insulin production compared with INGAP or scrambled peptide” value is “more effectively”. Besides, in data set [3] (after 10 days, Rosenberg protocol, 0.002 μg), the “insulin production (FIG. 6)” value was “increased insulin production”. In data set [3] (two concentrations (3 μM and 1 mM)), the “insulin production (FIG. 8A)” value is reported as “increased insulin production”. Further, the “morphology of ductal tissue culture fraction (FIG. 4)” value in data set [4] (after treatment, just before lysis and RIA) is on record as “Morphological changes show islet like structure”. Also, the “morphology of progenitor tissue cultures (FIG. 7A)” value in data set [4] (day 2 of treatment (day 12)) is “starting to bud at one end where a progenitor cell resides”. For the same substance, the “morphology of progenitor tissue cultures (FIG. 7B)” value in data set [4] (day 6 of treatment (day 18)) is “darkening of the budding portion of the ductal epithelial cyst indicates the differentiation of cells”. For the same substance, the “islet structure formation (micrograph, FIG. 4A)” value in data set [4] (pancreatic ductal tissue fraction culture, six days of culture with peptide) is reported as “New islet structure has formed”. In data set [5], the “total islet mass (qualitative)” value is reported as “increased total islet mass” and the “total islet number (qualitative)” value is listed as “increased total islet number”. Further, in data set [6], the storage stability result is listed as “stable for months”.

Source of the values: patent publication US8785400B2, “Methods and compositions relating to islet cell neogenesis” (CureDM Group Holdings, LLC, priority 2006, dated 2014).
